Results published in patent publication US7635693B2, “Methods for preventing and treating cancer using N-thiolated β-lactam compounds and analogs thereof” (University of South Florida, priority 2002, dated 2009).
pIC50: −log10 of the molar value. “And” between values parts separate entries of the source, which are not always exact repeats. Equal values may be shown once. Read-outs that look alike come from different tables or passages of the source.

Experiments:
[1] = test system: Jurkat T cells; assay type: cell-based, human; details: for loss of membrane permeability (trypan blue incorporation): 8 hours
Method: The trypan blue exclusion assay was performed by injecting 10 μl of cell suspension containing 0.2% trypan blue dye into a hemoicytometer and counting. Numbers of cells that absorbed the dye and those that excluded the dye are counted, from which the percentage of non-viable cell number to total cell number is calculated.

[2] = test system: Jurkat T cells; details: for inhibition of 3H-thymidine incorporation: Jurkat T cells
Method: Incorporation of ^3H-thymidine into cells was measured as disclosed in Smith D M and Dou Q P, 2001, Green tea polyphenol epigallocatechin inhibits DNA replication and consequently induces leukemia cell apoptosis. Int J Mol Med 7:645-52. Jurkat T cells are pre-treated with a selected lactam for the indicated number of hours, followed by co-incubation with 2 μl/ml of [methyl-^3H]-thymidine [80 Ci (1.5 TBq)/mMol] at 37° C. for 2 hours. After harvesting, the cell pellet is washed with PBS, resuspended in 0.5 ml of PBS and collected on a glass microfiber filter. The filter is then washed with 5 ml/filter of PBS, followed by 5 ml/filter of ice-cold 0.1N NaOH and 5 ml/filter of ethanol. The filters containing fixed DNA are dried, and the remaining radioactivity is measured on a scintillation counter.

[3] = test system: Jurkat T cells; test: TUNEL assay (DNA strand breaks), Jurkat T cells; assay type: cell-based, human; details: 50 μM
Method: Terminal deoxynucleotidyl transferase-mediated UTP nick end labeling (TUNEL) was performed to determine the extent of DNA strand breaks. TUNEL assay was performed with an APO-Direct kit per the manufacturer's instructions. In brief, cells are fixed in 1% paraformaldehyde and ethanol at […] overnight and then permeabilized with Proteinase K. After permeabilization, Fluorescein conjugated dNTP's and TdT enzyme (Terminal Deoxynucleotidyl Transferase) are added to the cells. The TdT enzyme is then able to label free ends of DNA with Fluorescein conjugated dNTPs that could then be detected by flow cytometry.
The assay was performed following manufacturer's instruction using the APO-Direct kit. In brief, the harvested cells were fixed in 1% paraformaldehyde for 15 min on ice, washed with PBS, and then fixed again in 70% ethanol at −20° C. overnight. The cells were then incubated in DNA labeling solution (containing terminal deoxynucleotidyl transferase (TdT) enzyme, fluorescein-conjugated dUTP and reaction buffer) for 90 min at 37° C. After removing the DNA labeling solution by rinsing cells with Rinsing Buffer, the cells were incubated with the Propidium Iodide/RNase A solution, incubated for 30 min at room temperature in the dark, and then analyzed by flow cytometry within 3 h of staining.

[4] = test system: MCF-7 cells; test: MTT assay, MCF-7; assay type: cell-based, human; details: MCF-7, 50 μM, 24 hours
Method: MCF-7, MDA-MB-231, PC-3 and PCI-13 cells were grown to 50% confluency in a 24 well plate. […] A stock 5 mg/ml of MTT in serum-free media was then added to the cell cultures at a final concentration of 1 mg/ml, followed by a 3 hour incubation at 37° C. After cells crystallized, the media was removed and DMSO added to dissolve the metabolized MTT product. The absorbance was then measured on a Wallac Victor 1420 Multilabel counter at […].

[5] = test system: NK cells (YT line); details: YT cells, 30 μM, 24 h
Method: The trypan blue dye exclusion assay was performed by mixing 20 μl of cell suspension with 20 μl of 0.4% trypan blue dye before injecting into a hemocytometer and counting. The number of cells that absorbed the dye and those that exclude the dye were counted, from which the percentage of nonviable cell number to total cell number was calculated.

[6] = test system: caspase-3; details: LNCaP cells, 48 h, 50 μM
Method: To measure cell-free caspase-3 activity, whole cell extracts (20-30 μg) from untreated or treated LNCaP cells were incubated with 20 μM of the fluorogenic substrate caspase-3/caspase-7 (Ac-DEVD-AMC) for 30 min at 37° C. in 100 μl of assay buffer (50 mM Tris, pH 8.0).

[7] = test system: LNCaP cells; details: LNCaP cells in soft agar, 50 μM, 21 day-incubation
Method: The soft agar assay was performed as described previously (Menter D G, Sabichi A L, Lippman S M., 2000, Selenium effects on prostate cell growth. Cancer Epidemiol Biomarkers Prev 9:1171-82) with a few modifications. In brief, in a six-well plate, a bottom feeder layer (0.6% agar) was prepared with DMEM media containing 10% fetal bovine serum, 100 units/ml penicillin, and 100 μg/ml streptomycin. […] Plates were incubated at 37° C. in 5% CO2 in a humidified incubator for three weeks. MTT (1 mg/ml) was added to each well and incubated overnight to allow complete formation of purple formazan crystals. The plates were then scanned and photographed, and the number of colonies was quantified by Quantity one v.4.0.3 software (Bio-Rad, Hercules, Calif.).

[8] = test system: VA-13 cells; details: detached VA-13 cells, 50 μM
Method: (§1) (FIG. 19A) MTT assay. (FIG. 19B) Cell-free caspase-9 activity assay. A protein extract (20 μg) is incubated with 20 μM Ac-LEHD-AFC (the specific caspase-9 substrate) in a 96-well plate at 37° C. for 2 h. After incubation, the liberated florescent AFC groups are measured by Wallac Victor 1420 Multilabel counter with 405/535 nm filters. […] Both intact and active forms of caspase-3 are indicated. […] Both detached and attached populations of Va-13 or WI-38 cells are collected, and used for nuclear staining assay with DNA staining dye Hoechst 33342.
(§2) To assay nuclear morphology, both the detached or remaining attached solid tumor cells were washed with PBS, fixed with 70% ethanol for 1 hour, and stained with Hoechst 33342 (50 μM) for 30 minutes. The nuclear morphology of cells was visualized by a fluorescence microscope.

[9] = test system: WI-38 cells; details: 50 μM
Method: as §1, §2

[10] = test system: cytochrome C; details: Jurkat T cells, 50 μM, 2 to 4 hours
Method: At each time point, cells were washed twice with PBS, resuspended in a hypotonic buffer containing 20 mM HEPES (pH 7.5), 1.5 mM MgCl2, 5 mM KCl and 1 mM DTT, and incubated on ice for 10 min. The cells are dounced 30 times, and the lysate is centrifuged at 2,000×g for 10 min. The supernatant is collected and centrifuged again at the same condition. The resulting supernatant is then centrifuged at 20,500×g for 30 min, followed by collection of both the supernatant (cytosol) and pellet fractions. The pellet is washed twice with a buffer containing 210 mM mannitol, 70 mM sucrose, 5 mM Tris-HCl (pH 7.5) and 1 mM EDTA, and resuspended in the lysis buffer as the mitochondria fraction.

[11] = test system: Jurkat T cells; details: 50 μM, cited from earlier work

## COC1C(=O)N(SC)C1c1ccccc1Cl (racemic) [lactam 1]
[1]; 30 μM, 24 h
  cell death (trypan blue): 42%
[1]; 50 μM, 3 h
  cell death (trypan blue): 11%
[1]; 50 μM, 4 hours
  non-viable cell population (trypan blue): 20%
[1]; 50 μM, 6 h
  trypan blue-positive cells: 20%
[1]; 50 μM, 24 h
  non-viable cell population / cell death (trypan blue): 60% and ~52% and ~50%
[1]; 50 μM
  loss of membrane permeability (trypan blue incorporation): ~30%
[1]; 60 μM
  loss of membrane permeability (trypan blue incorporation): ~80%
[1]; 20-40 μM
  loss of membrane permeability (trypan blue incorporation): ~10%
[2]; 20 μM, 2 h pre-incubation + 2 hour co-incubation
  inhibition of 3H-thymidine incorporation: 20%
[2]; 30 μM, 2 h pre-incubation + 2 hour co-incubation
  inhibition of 3H-thymidine incorporation: 45%
[2]; 40 μM, 2 h pre-incubation + 2 hour co-incubation
  inhibition of 3H-thymidine incorporation: 90%
[2]; 50 μM, added at the same time as 3H-thymidine, co-incubated 2 h
  inhibition of 3H-thymidine incorporation: ~70%
[2]; 50 μM, pre-incubation 2 to 8 h, then 2 hour with 3H-thymidine
  inhibition of 3H-thymidine incorporation: 95%
[2]; 50 or 60 μM, 2 h pre-incubation + 2 hour co-incubation
  inhibition of 3H-thymidine incorporation: ~100%
[2]; read-out: half-maximal inhibition value for incorporation of 3H-thymidine (IC50), intact Jurkat cells, total treatment 4 h
  pIC50: 4.49
[3]; 1 hour
  DNA strand breaks (TUNEL): did not induce DNA strand breaks
[3]; 2 hour
  cell population positive for DNA strand breaks (TUNEL): more than half of the cell population
[3]; 24 h
  TUNEL-positive cells: 66%
[4]
  decrease of cellular viability (MTT): 80%
[5]
  cell death (trypan blue): 9%
[6]
  increase in caspase-3 activity over control: 2.5 fold
[7]
  inhibition of colony formation: 91%
[8]
  nuclear morphology (Hoechst 33342): apoptotic nuclear condensation and fragmentation
[9]
  nuclear morphology (Hoechst 33342): remained attached with normal nuclei
[10]
  levels of cytosolic cytochrome C: significantly increased
  levels of mitochondrial cytochrome C: decreased
[11]; 12 h (Smith et al., 2002)
  sub-G1 population: 10%
[11]; 24 h (Smith et al., 2002)
  sub-G1 population: 16%
